Results published in PubChem BioAssay AID330 (DTP/NCI, 2004).
Where “and” joins values, the source holds several entries; their conditions need not be identical. Identical values can stand only once. Toxic doses and inconclusive results are not listed.

Tested on: P388 leukemia ip, CD2F1 mice, survival T/C
Assay: NCI In Vivo Anticancer Drug Screen. Data for tumor model P388 Leukemia (intraperitoneal) in CD2F1 (CDF1) mice
Conditions: endpoint: median survival time, higher = longer survival
How it was run: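 Mice carrying the transplanted tumor received test compound or vehicle. Survival was recorded in each group, and the value is the treated-group measurement divided by that of the vehicle-treated control group.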

[1] = dose: 6.25 mg/kg/injection, schedule: Q01DX009 (ip), vehicle: saline
[2] = dose: 50.0 mg/kg/injection, schedule: Q01DX009 (ip), vehicle: saline
[3] = dose: 25.0 mg/kg/injection, schedule: Q01DX005 (ip), vehicle: saline with Tween-80
[4] = dose: 50.0 mg/kg/injection, schedule: Q01DX005 (ip), vehicle: saline with Tween-80
[5] = dose: 100.0 mg/kg/injection, schedule: Q01DX005 (ip), vehicle: saline with Tween-80
[6] = dose: 50.0 mg/kg/injection, schedule: Q01DX009 (ip), vehicle: Klucel (hydroxypropylcellulose) (HPC)
[7] = dose: 100.0 mg/kg/injection, schedule: Q01DX009 (ip), vehicle: Klucel (hydroxypropylcellulose) (HPC)
[8] = dose: 200.0 mg/kg/injection, schedule: Q01DX009 (ip), vehicle: Klucel (hydroxypropylcellulose) (HPC)
[9] = dose: 100.0 mg/kg/injection, schedule: Q01DX001 (ip), vehicle: Klucel (hydroxypropylcellulose) (HPC)
[10] = dose: 200.0 mg/kg/injection, schedule: Q01DX001 (ip), vehicle: Klucel (hydroxypropylcellulose) (HPC)
[11] = dose: 200.0 mg/kg/injection, schedule: Q01DX005 (ip), vehicle: saline with Tween-80

For C/C(=N\N)C1C(=O)c2ccccc2C1=O, the T/C [1] was 100 % of control, the T/C (dose: 12.5 mg/kg/injection, schedule: Q01DX009 (ip), vehicle: saline) was 105 % of control and the T/C (dose: 25.0 mg/kg/injection, schedule: Q01DX009 (ip), vehicle: saline) was 101 % of control and 86 % of control. For the same molecule, the T/C [2] was 98 % of control.
CC(C)(O)C1CCC2(C)CC(=O)NCCN12 (centres undefined) was tested, and the T/C (dose: 25.0 mg/kg/injection, schedule: Q01DX001 (ip), vehicle: Klucel (hydroxypropylcellulose) (HPC)) was 112 % of control and the T/C (dose: 50.0 mg/kg/injection, schedule: Q01DX001 (ip), vehicle: Klucel (hydroxypropylcellulose) (HPC)) was 106 % of control.
For Cc1cc2n[se]nc2cc1C, the T/C (dose: 6.25 mg/kg/injection, schedule: Q01DX009 (ip), vehicle: Klucel (hydroxypropylcellulose) (HPC)) was 107 % of control, the T/C (dose: 12.5 mg/kg/injection, schedule: Q01DX009 (ip), vehicle: Klucel (hydroxypropylcellulose) (HPC)) was 96 % of control and the T/C (dose: 25.0 mg/kg/injection, schedule: Q01DX009 (ip), vehicle: Klucel (hydroxypropylcellulose) (HPC)) was 100 % of control.
With CC(=O)C(c1ccccc1)S(=O)(=O)c1ccc(C)cc1 (centres undefined) the T/C [3] was 97 % of control, the T/C [4] was 94 % of control and the T/C [5] was 87 % of control.
With COC(=O)c1cc(-c2ccncc2)[nH]c(=O)c1C#N the T/C (dose: 60.0 mg/kg/injection, schedule: Q01DX005 (ip), vehicle: saline) was 101 % of control, the T/C (dose: 120.0 mg/kg/injection, schedule: Q01DX005 (ip), vehicle: saline) was 99 % of control and the T/C (dose: 240.0 mg/kg/injection, schedule: Q01DX005 (ip), vehicle: saline) was 94 % of control.
In the case of O=[N+]([O-])/C=C/c1ccc(Cl)cc1Cl, the T/C (dose: 20.0 mg/kg/injection, schedule: Q04DX003 (ip), vehicle: saline with Tween-80) is reported as 118 % of control, the T/C (dose: 40.0 mg/kg/injection, schedule: Q04DX003 (ip), vehicle: saline with Tween-80) is reported as 118 % of control and the T/C (dose: 80.0 mg/kg/injection, schedule: Q04DX003 (ip), vehicle: saline with Tween-80) is reported as 118 % of control.
COc1cc(/C=C(\C)[N+](=O)[O-])cc(Br)c1O was tested, and the T/C (dose: 100.0 mg/kg/injection, schedule: Q04DX003 (ip), vehicle: saline with Tween-80) was 100 % of control, the T/C (dose: 200.0 mg/kg/injection, schedule: Q04DX003 (ip), vehicle: saline with Tween-80) was 109 % of control and the T/C (dose: 400.0 mg/kg/injection, schedule: Q04DX003 (ip), vehicle: saline with Tween-80) was 94 % of control.
For C[n+]1ccc(-c2cc[n+](C)cc2)cc1, the T/C (dose: 0.39 mg/kg/injection, schedule: Q01DX009 (ip), vehicle: saline) was 98 % of control, the T/C (dose: 0.78 mg/kg/injection, schedule: Q01DX009 (ip), vehicle: saline) was 109 % of control and the T/C (dose: 1.56 mg/kg/injection, schedule: Q01DX009 (ip), vehicle: saline) was 103 % of control and 109 % of control. The T/C (dose: 3.12 mg/kg/injection, schedule: Q01DX009 (ip), vehicle: saline) was 100 % of control and 89 % of control and the T/C [1] was 87 % of control.
In the case of O=C(/C=C/c1ccc(OCc2ccccc2)cc1)c1ccccc1Cl, the T/C (dose: 50.0 mg/kg/injection, schedule: Q01DX009 (ip), vehicle: saline with Tween-80) is reported as 110 % of control and 95 % of control, the T/C (dose: 100.0 mg/kg/injection, schedule: Q01DX009 (ip), vehicle: saline with Tween-80) is reported as 110 % of control and 91 % of control and the T/C (dose: 200.0 mg/kg/injection, schedule: Q01DX009 (ip), vehicle: saline with Tween-80) is reported as 100 % of control. The T/C (dose: 400.0 mg/kg/injection, schedule: Q01DX009 (ip), vehicle: saline with Tween-80) was 100 % of control.
For CC(C)(C)[Si](C)(C)ONC(N)=O, the T/C (dose: 12.5 mg/kg/injection, schedule: Q01DX009 (ip), vehicle: distilled water + Tween-80) was 99 % of control, the T/C (dose: 25.0 mg/kg/injection, schedule: Q01DX009 (ip), vehicle: distilled water + Tween-80) was 94 % of control and the T/C (dose: 50.0 mg/kg/injection, schedule: Q01DX009 (ip), vehicle: distilled water + Tween-80) was 93 % of control. For the same molecule, the T/C (dose: 100.0 mg/kg/injection, schedule: Q01DX009 (ip), vehicle: distilled water + Tween-80) was 88 % of control and the T/C (dose: 200.0 mg/kg/injection, schedule: Q01DX009 (ip), vehicle: distilled water + Tween-80) was 90 % of control.
With CC1OC(C)(C2CC2)OC1C (centres undefined) the T/C (dose: 100.0 mg/kg/injection, schedule: Q04DX003 (ip), vehicle: Klucel (hydroxypropylcellulose) (HPC)) was 95 % of control and the T/C (dose: 200.0 mg/kg/injection, schedule: Q04DX003 (ip), vehicle: Klucel (hydroxypropylcellulose) (HPC)) was 100 % of control.
CC(=O)CC(c1ccc(Cl)cc1)C(C#N)c1ccccc1 (centres undefined) was tested, and the T/C [6] was 89 % of control, the T/C [7] was 91 % of control and the T/C [8] was 86 % of control.
In the case of Cc1nn(C(C)C(=O)N(C)C)c(Br)c1Br (centres undefined), the T/C [6] is reported as 99 % of control, the T/C [7] is reported as 108 % of control and the T/C [8] is reported as 111 % of control.
In the case of N#Cc1c(Cl)nc2sccn12, the T/C [9] is reported as 95 % of control and the T/C [10] is reported as 103 % of control.
For CC(C)(C)NC/C(C#N)=C\c1ccccc1, the T/C (dose: 25.0 mg/kg/injection, schedule: Q01DX001 (ip), vehicle: saline with Tween-80) was 102 % of control, the T/C (dose: 50.0 mg/kg/injection, schedule: Q01DX001 (ip), vehicle: saline with Tween-80) was 99 % of control and the T/C (dose: 100.0 mg/kg/injection, schedule: Q01DX001 (ip), vehicle: saline with Tween-80) was 97 % of control.
In the case of Cc1ccc2oc(-c3nnc(N)s3)cc(=O)c2c1, the T/C [4] is reported as 100 % of control, the T/C [5] is reported as 100 % of control and the T/C [11] is reported as 93 % of control.
For O=C(c1ccccc1)N1CCCCC1, the T/C [2] was 95 % of control, the T/C (dose: 100.0 mg/kg/injection, schedule: Q01DX009 (ip), vehicle: saline) was 100 % of control and the T/C (dose: 100.0 mg/kg/injection, schedule: Q04DX003 (ip), vehicle: saline) was 110 % of control. For the same molecule, the T/C (dose: 200.0 mg/kg/injection, schedule: Q01DX009 (ip), vehicle: saline) was 100 % of control and the T/C (dose: 200.0 mg/kg/injection, schedule: Q04DX003 (ip), vehicle: saline) was 110 % of control.
For CC(C)=CCn1c2ccccc2c(=O)c2ccccc21, the T/C [4] was 112 % of control, the T/C [5] was 105 % of control and the T/C [11] was 107 % of control.
For C=C(c1ccc(OC)cc1)C(CC)c1ccc(OC)cc1 (centres undefined), the T/C (dose: 60.0 mg/kg/injection, schedule: Q01DX005 (ip), vehicle: saline with Tween-80) was 101 % of control and the T/C (dose: 120.0 mg/kg/injection, schedule: Q01DX005 (ip), vehicle: saline with Tween-80) was 100 % of control.
For c1ccc(-c2nnc3c4[nH]c5ccccc5c4cnn23)cc1, the T/C [9] was 105 % of control, the T/C [10] was 105 % of control and the T/C (dose: 400.0 mg/kg/injection, schedule: Q01DX001 (ip), vehicle: Klucel (hydroxypropylcellulose) (HPC)) was 99 % of control.
For COc1cc(C=O)c(C=O)cc1OC, the T/C (dose: 25.0 mg/kg/injection, schedule: Q04DX003 (ip), vehicle: saline with Tween-80) was 100 % of control.
For CC(=O)N1C=CC(C2C=CN(C(C)=O)C=C2)C=C1, the T/C (dose: 10.0 mg/kg/injection, schedule: Q01DX009 (ip), vehicle: saline with Tween-80) was 109 % of control, the T/C (dose: 20.0 mg/kg/injection, schedule: Q01DX009 (ip), vehicle: saline with Tween-80) was 96 % of control and the T/C (dose: 40.0 mg/kg/injection, schedule: Q01DX009 (ip), vehicle: saline with Tween-80) was 100 % of control.
In the case of COc1cc(N(CCCl)CCCl)c(OC)cc1/C=N\Nc1nncn1N, the T/C (dose: 0.25 mg/kg/injection, schedule: Q01DX009 (ip), vehicle: saline) is reported as 95 % of control, the T/C (dose: 0.5 mg/kg/injection, schedule: Q01DX009 (ip), vehicle: saline) is reported as 104 % of control and the T/C (dose: 0.63 mg/kg/injection, schedule: Q04DX003 (ip), vehicle: saline) is reported as 100 % of control. For the same molecule, the T/C (dose: 1.25 mg/kg/injection, schedule: Q01DX009 (ip), vehicle: saline) was 154 % of control, the T/C (dose: 1.25 mg/kg/injection, schedule: Q04DX003 (ip), vehicle: saline) was 100 % of control and the T/C (dose: 2.5 mg/kg/injection, schedule: Q01DX009 (ip), vehicle: saline) was 154 % of control. For the same molecule, the T/C (dose: 2.5 mg/kg/injection, schedule: Q04DX003 (ip), vehicle: saline) was 107 % of control, the T/C (dose: 5.0 mg/kg/injection, schedule: Q01DX009 (ip), vehicle: saline) was 186 % of control and the T/C (dose: 5.0 mg/kg/injection, schedule: Q04DX003 (ip), vehicle: saline) was 123 % of control.
In the case of CCOC(=O)c1n[nH]c(C)c1CC(N)c1ccccc1 (centres undefined), the T/C (dose: 12.5 mg/kg/injection, schedule: Q01DX005 (ip), vehicle: saline with Tween-80) is reported as 100 % of control and the T/C [3] is reported as 96 % of control.
